Consider one molecule from patent US20170354617A1, “METHOD OF TREATING OR PREVENTING OSTEOPOROSIS” (Research Foundation of the City University of New York, priority 2016, published 2017).

Experiment [1] deals with estrogen-deficient (OVX) mice, post-menopausal type bone loss. Put plainly: Ovariectomy (OVX) estrogen-depletion bone loss prevention in mice. The experiment is classed as in vivo. The text has this:
Young adult mice were subjected to surgical ovariectomy (OVX) to deplete estrogen. This is widely accepted model for inducing post-menopausal type bone loss. It is the standard used by pharmaceutical companies in preclinical trials and is required by the FDA to confirm efficacy of an agent in preventing bone loss. Seven sham control mice received a surgical incision and wound closure but ovaries were left intact. Mice were return to their cages after surgery. Six “MB” mice received methylene blue in the cage water (0.2% in cage water supply starting 24 hours before surgery) which they were allowed to consume ad libitum for the duration of the study (three months); the remainder of the mice received normal cage water. Mice were sacrificed at three months post-OVX and bones were examined using microCT. The results are depicted in FIG. 2A and FIG. 2B which show bone changes with estrogen loss (OVX) were prevented by systemic treatment with methylene blue (MB). FIG. 2B is a graph of Bone Volume over Total Volume (BV/TV) for the groups of mice.

Experiment [2] has as its system bipolar manic-depressive patients. The following applies: 300 mg per day for one year; cited from earlier work.
The test system of the next experiment is rats. As to conditions: injected at a dose of 1 mg per kg; cited from earlier work.
Experiment [3] relates to chronic renal calculus disease. As to conditions: 65 mg taken three times a day; cited from earlier work.
Experiment [4] concerns aged mouse femur, age-related bone loss. Put plainly: Age-related (Type 2) osteoporosis in aged mice, one year treatment. The experiment is classed as in vivo. Here is the method:
A one year old mouse is biologically similar to a 45-50 year-old human. Starting at 1 year of age, methylene blue was administered in the cage water supply (0.2% by weight) for one year to three male mice. Control mice received normal water. Animals were free to consume water and food ad libitum. Bones were examined when the mice were two years old, which is similar to a 75-80 year-old person.
FIG. 3A is a micro-Xray image of aged mouse femur from mouse with no treatment. Large holes or pores are clearly seen in the bone, as is thinning of the bone cortex. This is normal age-related osteoporosis.
FIG. 3B is a micro-Xray image of aged mouse femur from mouse after one year duration methylene blue treatment. No increases in porosity or cortex thinning are seen.

With `CN(C)c1ccc2nc3ccc(=[N+](C)C)cc-3sc2c1` [methylene blue], the “Bone loss, Bone Volume over Total Volume (BV/TV)” value in experiment [1] (0.2% in cage water ad libitum, three months post-OVX, microCT of distal femur, OVX without treatment approx. 40% reduction in bone volume) is recorded as “almost completely prevented”. Also, in experiment [1] (mice model of estrogen removal), the Bone mechanical property result is “maintained”, the Bone mineral density entry is given as “maintained”, the “Cancellous bone loss after estrogen removal” value was “prevent cancellous bone loss” and the Osteocyte apoptosis result was “prevent osteocyte apoptosis”. Further, in experiment [1] (mice model of estrogen removal), the “Oxidative stress in bone cells” value is “protect bone cells from oxidative stress”. The “Depression compared with placebo” value in experiment [2] is listed as “significantly less depressed”. For the same molecule, in the experiment on rats, the “Brain oxidative metabolism and memory retention” value was “improved”. Further, the “Management of chronic renal calculus disease” value in experiment [3] is “useful”. Moreover, the “Bone porosity compared to bones from control mice” value in experiment [4] (0.2% by weight in cage water for one year from 1 year of age, male mice, femur examined at two years old, FIG. 4) was “about half”. Moreover, the “Cortex thinning (micro-Xray image)” value in experiment [4] (0.2% by weight in cage water for one year, aged mouse femur, FIG. 3B) was “prevented the cortex or shell of the bone from thinning”.
